Measurements reported in patent US8119563B2, “N-substituted azacycles” (FMC Corporation, priority 2003, dated 2012).

Test system: tobacco budworm (Heliothis virescens [Fabricius])
Test: surface-treated diet test, insecticidal activity against tobacco budworm
Type: in vivo
Parameters: mortality: concentration or dose not given beside the values
Details: 0.25 millimoles of candidate insecticide on the surface of the diet, second instar larvae, five-day exposure; for Percent Mortality / mortality: compared to total number of insects infested; for Percent Growth Inhibition / pest or weed control at 0.25 mmol/well: inhibition of insect weight relative to untreated controls; for mortality / pest or weed control at 0.25 mmol/well: Heliothis virescens, 120 h; for mortality: read-out: Percent Mortality; for pest or weed control at 0.25 mmol/well: read-out: Percent Growth Inhibition
Method: Candidate insecticides were evaluated for activity against the tobacco budworm (Heliothis virescens [Fabricius]) in a surface-treated diet test.
In this test one mL of molten (65-70° C.) wheat germ-based artificial diet was pipetted into each well of a four by six (24 well) multi-well plate (ID# 430345-15.5 mm dia.×17.6 mm deep; Corning Costar Corp., One Alewife Center, Cambridge, Mass. 02140). The diet was allowed to cool to ambient temperature before treatment with candidate insecticide.
For a determination of insecticidal activity, solutions of the candidate insecticides were prepared for testing using a Packard 204DT Multiprobe® Robotic System (Packard Instrument Company, 800 Research Parkway, Meriden, Conn. 06450), in which the robot first diluted a standard 50 millimolar DMSO solution of candidate insecticide with a 1:1 water/acetone solution (V/V) in a ratio of 1:7 stock solution to water/acetone. The robot subsequently pipetted 40 microliters of the so-prepared solution onto the surface of the diet in each of three wells in the 24 multi-well plate. The process was repeated with solutions of seven other candidate insecticides. Once treated, the contents of the multi-well plate were allowed to dry, leaving 0.25 millimoles of candidate insecticide on the surface of the diet, or a concentration of 0.25 millimolar. Appropriate untreated controls containing only DMSO on the diet surface were also included in this test.
For evaluations of the insecticidal activity of a candidate insecticide at varying rates of application, the test was established as described above using sub-multiples of the standard 50 millimolar DMSO solution of candidate insecticide. For example, the standard 50 millimolar solution was diluted by the robot with DMSO to give 5, 0.5, 0.05, 0.005, 0.0005 millimolar, or more dilute solutions of the candidate insecticide. In these evaluations there were six replicates of each rate of application placed on the surface of the diet in the 24 multi-well plate, for a total of four rates of application of candidate insecticide in each plate.
In each well of the test plate was placed one second instar tobacco budworm larvea, each weighing approximately five milligrams. After the larvae were placed in each well, the plate was sealed with clear polyfilm adhesive tape. The tape over each well was perforated to ensure an adequate air supply. The plates were then held in a growth chamber at 25° C. and 60% relative humidity for five days (light 14 hours/day).
After the five-day exposure period insecticidal activity for each rate of application of candidate insecticide was assessed as percent inhibition of insect weight relative to the weight of insects from untreated controls, and percent mortality when compared to the total number of insects infested.
The test compounds of formula I are identified by numbers that correspond to those in Table 1.

SMILES: CC(O)c1ccc(C(c2ccc(OC(F)(F)F)cc2)C2(O)CCN(Cc3ccc(Oc4ccccn4)cc3)CC2)cc1 (mixture of isomers) [Compound 287]
- Percent Mortality: 100%
- Percent Growth Inhibition: 100%

SMILES: CC1(C)C(C=C(Cl)C(F)(F)F)C1C(=O)[O-].OC1(C(c2ccc(C(F)(F)F)cc2)c2ccc(C(F)(F)F)cc2)CC[N+](O)(Cc2ccc(Oc3ccc(Cl)nn3)cc2)CC1 (mixture of isomers) [Compound 519]
- Percent Mortality: 100%
- Percent Growth Inhibition: 100%

SMILES: OC1(C(c2ccc(F)cc2)c2ccc(OC(F)(F)F)cc2)CCN(Cc2ccc(Oc3ccccn3)cc2)CC1 (racemic) [Compound 268]
- Percent Mortality: 100%
- Percent Growth Inhibition: 100%

SMILES: OC1(C(c2ccc(OC(F)F)cc2)c2ccc(OC(F)(F)F)cc2)CCN(Cc2ccc(Oc3ccccn3)cc2)CC1 (racemic) [Compound 269]
- Percent Mortality: 100%
- Percent Growth Inhibition: 100%

SMILES: OC(c1ccc(Cl)cc1)c1ccc(CN2CCC(O)(C(c3ccc(OC(F)(F)F)cc3)c3ccc(OC(F)(F)F)cc3)CC2)cc1 (racemic) [Compound 278]
- Percent Mortality: 100%
- Percent Growth Inhibition: 100%

SMILES: OC(c1ccc(CN2CCC(O)(C(c3ccc(OC(F)(F)F)cc3)c3ccc(OC(F)(F)F)cc3)CC2)cc1)c1ccccn1 (racemic) [Compound 282]
- Percent Mortality: 100%
- Percent Growth Inhibition: 100%

SMILES: CC(C)=CCCC(C)=CCON=Cc1ccc(C(c2ccc(OC(F)(F)F)cc2)C2(O)CCN(Cc3ccc(Oc4ccccn4)cc3)CC2)cc1 (racemic) [Compound 284]
- Percent Mortality: 17%
- Percent Growth Inhibition: 100%

SMILES: OC1(C(c2ccccc2)c2ccc(OC(F)(F)F)cc2)CCN(Cc2ccc(Oc3ccccn3)cc2)CC1 (racemic) [Compound 288]
- Percent Mortality: 100%
- Percent Growth Inhibition: 100%

SMILES: CC(=O)OC(c1ccc(Cl)cc1)c1ccc(CN2CCC(O)(C(c3ccc(OC(F)(F)F)cc3)c3ccc(OC(F)(F)F)cc3)CC2)cc1 (racemic) [Compound 289]
- Percent Mortality: 100%
- Percent Growth Inhibition: 100%

SMILES: OC1(C(c2ccc(OC(F)(F)F)cc2)c2ccc(C3OCCO3)cc2)CCN(Cc2ccc(Oc3ccccn3)cc2)CC1 (racemic) [Compound 295]
- Percent Mortality: 100%
- Percent Growth Inhibition: 100%

SMILES: OC1(C(c2ccccc2Cl)c2ccccc2Cl)CCN(Cc2ccc(Oc3ncccn3)cc2)CC1 [Compound 1]
- Percent Mortality: 0%
- Percent Growth Inhibition: 57%

SMILES: OC1(C(c2ccc(OC(F)(F)F)cc2)c2ccc(C(F)(F)F)cc2)CCN(Cc2ccc(Oc3ncccn3)cc2)CC1 (centres unmarked) [Compound 2]
- Percent Mortality: 100%
- Percent Growth Inhibition: 100%

SMILES: OC1(C(c2ccc(C(F)(F)F)cc2)c2cc(Cl)cc(Cl)c2)CCN(Cc2ccc(Oc3ncccn3)cc2)CC1 (centres unmarked) [Compound 3]
- Percent Mortality: 100%
- Percent Growth Inhibition: 100%

SMILES: OC1(C(c2ccc(Cl)c(F)c2)c2ccc(Cl)c(F)c2)CCN(Cc2ccc(Oc3ncccn3)cc2)CC1 [Compound 4]
- Percent Mortality: 100%
- Percent Growth Inhibition: 100%

SMILES: COc1cc(OC)cc(C(c2ccc(C(F)(F)F)cc2)C2(O)CCN(Cc3ccc(Oc4ncccn4)cc3)CC2)c1 (centres unmarked) [Compound 5]
- Percent Mortality: 0%
- Percent Growth Inhibition: 97%

SMILES: OC1(C(c2ccc(Cl)cc2)c2ccc(C(F)(F)F)cc2)CCN(Cc2ccc(Oc3ncccn3)cc2)CC1 (centres unmarked) [Compound 7]
- Percent Mortality: 100%
- Percent Growth Inhibition: 100%

SMILES: OC1(C(c2cccc(F)c2)c2cccc(F)c2)CCN(Cc2ccc(Oc3ncccn3)cc2)CC1 [Compound 8]
- Percent Mortality: 0%
- Percent Growth Inhibition: 41%

SMILES: OC1(C(c2ccc(C(F)(F)F)cc2)c2ccc(Cl)c(Cl)c2)CCN(Cc2ccc(Oc3ncccn3)cc2)CC1 (centres unmarked) [Compound 9]
- Percent Mortality: 100%
- Percent Growth Inhibition: 100%

SMILES: OC1(C(c2cc(F)cc(F)c2)c2cc(F)cc(F)c2)CCN(Cc2ccc(Oc3ncccn3)cc2)CC1 [Compound 10]
- Percent Mortality: 0%
- Percent Growth Inhibition: 50%

SMILES: OC1(C(c2ccc(C(F)(F)F)cc2)c2cc(F)cc(F)c2)CCN(Cc2ccc(Oc3ncccn3)cc2)CC1 (centres unmarked) [Compound 11]
- Percent Mortality: 33%
- Percent Growth Inhibition: 100%

SMILES: OC1(C(c2ccc(C(F)(F)F)cc2)c2cccc(F)c2)CCN(Cc2ccc(Oc3ncccn3)cc2)CC1 (centres unmarked) [Compound 12]
- Percent Mortality: 0%
- Percent Growth Inhibition: 100%

SMILES: OC1(C(c2ccc(C(F)(F)F)cc2)c2cc(Cl)ccc2Cl)CCN(Cc2ccc(Oc3ncccn3)cc2)CC1 (centres unmarked) [Compound 13]
- Percent Mortality: 100%
- Percent Growth Inhibition: 100%

SMILES: OC1(C(c2ccc(C(F)(F)F)cc2)c2cccc(Cl)c2)CCN(Cc2ccc(Oc3ncccn3)cc2)CC1 (centres unmarked) [Compound 14]
- Percent Mortality: 100%
- Percent Growth Inhibition: 100%

SMILES: OC1(C(c2ccc(C(F)(F)F)cc2)c2ccc(Cl)cc2Cl)CCN(Cc2ccc(Oc3ncccn3)cc2)CC1 (centres unmarked) [Compound 15]
- Percent Mortality: 100%
- Percent Growth Inhibition: 100%

SMILES: OC1(C(c2ccc(C(F)(F)F)cc2)c2ccc(C(F)(F)F)cc2)CCN(Cc2ccc(Oc3ncccn3)cc2)CC1 [Compound 16]
- Percent Mortality: 100%
- Percent Growth Inhibition: 100%

SMILES: OC1(C(c2ccc(C(F)(F)F)cc2)c2ccc(F)c(F)c2)CCN(Cc2ccc(Oc3ncccn3)cc2)CC1 (centres unmarked) [Compound 17]
- Percent Mortality: 83%
- Percent Growth Inhibition: 100%

SMILES: OC1(C(c2ccc(C(F)(F)F)cc2)c2ccccc2Cl)CCN(Cc2ccc(Oc3ncccn3)cc2)CC1 (centres unmarked) [Compound 18]
- Percent Mortality: 100%
- Percent Growth Inhibition: 100%

SMILES: OC1(C(c2ccc(OC(F)(F)F)cc2)c2ccc(OC(F)(F)F)cc2)CCN(Cc2ccc(Oc3ncccn3)cc2)CC1 [Compound 19, 4-{bis[4-(trifluoromethoxy)phenyl]methyl}-1-[(4-pyrimidin-2-yloxyphenyl)methyl]piperidin-4-ol]
- mortality: 100%
- pest or weed control at 0.25 mmol/well: 100%

SMILES: OC1(C(c2ccc(OC(F)(F)F)cc2)c2ccc(OC(F)(F)F)cc2)CCN(Cc2ccc(-c3ncccn3)cc2)CC1 [Compound 20]
- Percent Mortality: 100%
- Percent Growth Inhibition: 100%

SMILES: OC1(C(c2ccc(OC(F)(F)F)cc2)c2ccc(OC(F)(F)F)cc2)CCN(Cc2ccc(Oc3ccccn3)cc2)CC1 [Compound 21, 4-{bis[4-(trifluoromethoxy)phenyl]methyl}-1-[(4-(2-pyridyloxy)phenyl)methyl]piperidin-4-ol]
- mortality: 100%
- pest or weed control at 0.25 mmol/well: 100%

SMILES: OC1(C(c2ccc(C(F)(F)F)cc2)c2ccc(C(F)(F)F)cc2)CCN(Cc2ccc(Oc3ccccn3)cc2)CC1 [Compound 22]
- Percent Mortality: 100%
- Percent Growth Inhibition: 100%

SMILES: CCn1nnc(-c2ccc(CN3CCC(O)(C(c4ccc(Cl)cc4)c4ccc(Cl)cc4)CC3)cc2)n1 [Compound 23]
- Percent Mortality: 100%
- Percent Growth Inhibition: 100%

SMILES: CCn1nnc(-c2ccc(CN3CCC(O)(C(c4cccc(Cl)c4)c4cccc(Cl)c4)CC3)cc2)n1 [Compound 24]
- Percent Mortality: 0%
- Percent Growth Inhibition: 98%

SMILES: CCn1nnc(-c2ccc(CN3CCC(O)(C(c4ccc(OC(F)(F)F)cc4)c4ccc(OC(F)(F)F)cc4)CC3)cc2)n1 [Compound 25]
- Percent Mortality: 100%
- Percent Growth Inhibition: 100%
